Test results taken from patent US12568967B2, “Compositions comprising pyridine carboxylate herbicides with synthetic auxin herbicides or auxin transport inhibitors” (priority 2018, dated 2026).
Like-named read-outs stand apart in the source and are kept apart here.

Columns and labels:
[1] = test system: Triticum aestivum (spring wheat, TRZAS); format: in vivo; conditions: for % visual injury (Obs) / % visual injury Obs: TRZAS
[2] = test system: Hordeum vulgare (spring barley, HORVS); format: in vivo; conditions: for % visual injury (Obs) / % visual injury Obs: HORVS
[3] = test system: Brassica napus (spring rape, BRSNN); assay: Greenhouse postemergence trial BRSNN; format: in vivo; conditions: for % visual injury (Obs): BRSNN
[4] = test system: Polygonum convolvulus (wild buckwheat, POLCO); assay: Greenhouse postemergence trial POLCO; format: in vivo; conditions: POLCO
[5] = test system: Kochia scoparia (kochia, KCHSC); assay: Greenhouse postemergence trial KCHSC; format: in vivo; conditions: KCHSC
[6] = test system: Viola tricolor (wild pansy, VIOTR); assay: Greenhouse postemergence trial VIOTR;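 note: greenhouse plants sprayed at second to third true leaf stage, injury rated visually after 20-22 d against solvent-blank sprayed controls, 0 meaning no injury and 100 complete kill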
Procedure: (§1) Seeds of the desired test plant species were planted in a 90:10% v/v (volume/volume) mixture of PRO-MIX® BX (Premier Tech Horticulture, Quakertown, PA, USA) and PROFILE® GREENS GRADE™ (Profile Products LLC, Buffalo Grove, IL, USA) planting mixture, which typically has a pH of 5.2 to 6.2 and an organic matter content of at least 50 percent, in plastic pots with a surface area of 103.2 square centimeters (cm^2). […] The plants were grown for 7-36 days (d) in a greenhouse with an approximate 14-hour (h) photo-period which was maintained at about 23° C. during the day and 22° C. during the night. Nutrients and water were added on a regular basis and supplemental lighting was provided with overhead metal halide 1000-Watt lamps as necessary. The plants were employed for testing when they reached the second or third true leaf stage.
(§2) Emulsifiable concentrates of each of each pyridine carboxylate herbicide (Compound A or Compound B) were prepared at 100 grams acid equivalent per liter (g ae/L). The emulsifiable concentrates also included a safener, cloquintocet-mexyl, at 120 grams active ingredient per liter (g ai/L), unless otherwise noted below. An aliquot of each emulsifiable concentrate was placed in a 25 mL glass vial and diluted with an aqueous mixture of 1.25% (v/v) ACTIROB® B esterified rapeseed oil (Bayer Crop Science, Research Triangle Park, NC, USA) or MSO® Concentrate with LECI-TECH® methylated soybean oil (Loveland Products, Loveland, CO, USA) to obtain concentrated stock solutions at the highest application rate for each herbicide, based upon a 12 milliliter (mL) application volume at a rate of 187 liters per hectare (L/ha). The concentrated stock solutions were further diluted with an aqueous mixture of 1.25% v/v ACTIROB® B or MSO® Concentrate with LECI-TECH® to obtain stock solutions at reduced application rates for each herbicide. Spray solutions of the herbicide combinations (Compound A or Compound B plus synthetic auxin herbicide or auxin transport inhibitor) were prepared by adding weighed amounts or aliquots of the synthetic auxin herbicide or auxin transport inhibitor to the stock solutions of Compound A or Compound B to form 12-mL spray solutions in two-way combinations.
(§3) The spray solutions were applied to the plant material with an overhead Mandel track sprayer equipped with 8002E nozzles calibrated to deliver 187 L/ha over an application area of 0.503 square meters (m^2) at a spray height of 18 inches (43 centimeters (cm)) above the average plant canopy. Control plants were sprayed in the same manner with the solvent blank. All pyridine carboxylate herbicide (component a) application rates are given as “g ae/ha” and all synthetic auxin herbicide or auxin transport inhibitor (component b) application rates are given as “g ai/ha.”
(§4) The treated plants and control plants were placed in a greenhouse as described above and watered by sub-irrigation to prevent wash-off of the test compounds. After 20-22 d, the condition of the test plants as compared with that of the control plants was determined visually and scored on a scale of 0 to 100 percent where 0 corresponds to no injury and 100 corresponds to complete kill.

[7] = test system: Brassica napus (winter rape, BRSNW); assay: Greenhouse postemergence trial BRSNW; format: in vivo; conditions: BRSNW
Procedure: as §1, §2, §3, §4

[8] = test system: Cirsium arvense (Canadian thistle, CIRAR); assay: Greenhouse postemergence trial CIRAR; format: in vivo; conditions: CIRAR
[9] = test system: Sinapis arvensis (wild mustard, SINAR); assay: Greenhouse postemergence trial SINAR; format: in vivo; conditions: SINAR
[10] = test system: Salsola kali (Russian thistle, SASKR); assay: Greenhouse postemergence trial SASKR; format: in vivo; conditions: SASKR;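 note: greenhouse plants sprayed at second or third true leaf stage, injury rated by eye after 20-22 d against solvent-blank controls, 0 meaning no injury, 100 complete kill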
Procedure: (§5) The plants were grown for 7-36 days (d) in a greenhouse with an approximate 14-hour (h) photo-period which was maintained at about 23° C. during the day and 22° C. during the night. Nutrients and water were added on a regular basis and supplemental lighting was provided with overhead metal halide 1000-Watt lamps as necessary. The plants were employed for testing when they reached the second or third true leaf stage.
(§6) The emulsifiable concentrates also included a safener, cloquintocet-mexyl, at 120 grams active ingredient per liter (g ai/L), unless otherwise noted below.
(§7) Control plants were sprayed in the same manner with the solvent blank. All pyridine carboxylate herbicide (component a) application rates are given as “g ae/ha” and all synthetic auxin herbicide or auxin transport inhibitor (component b) application rates are given as “g ai/ha.”
as §4

[11] = test system: Matricaria chamomilla (wild chamomile, MATCH); assay: Greenhouse postemergence trial MATCH; format: in vivo; conditions: MATCH;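 note: greenhouse plants sprayed at second to third true leaf stage, injury rated by eye 20-22 d later versus solvent-blank controls on 0–100 scale, 0 no injury, 100 complete kill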
Procedure: as §5, §6, §7, §4

[12] = test system: Cyanus segetum (cornflower, CENCY); assay: Greenhouse postemergence trial CENCY; format: in vivo; conditions: CENCY
[13] = test system: Viola arvensis (field violet, VIOAR); assay: Greenhouse postemergence trial VIOAR; format: in vivo; conditions: VIOAR
[14] = test system: Veronica hederifolia (ivyleaf speedwell, VERHE); assay: Greenhouse postemergence trial VERHE; format: in vivo; conditions: VERHE
[15] = test system: Papaver rhoeas (corn poppy, PAPRH); assay: Greenhouse postemergence trial PAPRH; format: in vivo; conditions: PAPRH
[16] = test system: Veronica persica (bird's-eye speedwell, VERPE); assay: Greenhouse postemergence trial VERPE; format: in vivo
[17] = test system: Papaver rhoeas (corn poppy), herbicide-resistant (PAPRH-R); assay: Greenhouse postemergence trial PAPRH-R; format: in vivo; conditions: PAPRH-R
[18] = test system: Capsella bursa-pastoris (shepherd's purse, CAPBP); assay: Greenhouse postemergence trial CAPBP; format: in vivo; conditions: CAPBP
[19] = test system: Stellaria media (chickweed, STEME); assay: Greenhouse postemergence trial STEME; format: in vivo; conditions: STEME
[20] = test system: Anthemis arvensis (field chamomile, ANTAR); assay: Greenhouse postemergence trial ANTAR; format: in vivo; conditions: ANTAR
[21] = test system: Matricaria discoidea (pineapple weed, MATMT); assay: Greenhouse postemergence trial MATMT; format: in vivo; conditions: MATMT
[22] = test system: Matricaria inodora (false chamomile, MATIN); assay: Greenhouse postemergence trial MATIN; format: in vivo; conditions: MATIN
Procedure: as §1, §2, §3, §4

[23] = test system: Triticum aestivum (winter wheat, TRZAW); assay: Greenhouse postemergence crop phytotoxicity TRZAW; format: in vivo; conditions: TRZAW
[24] = test system: Hordeum vulgare (winter barley, HORVW); assay: Greenhouse postemergence crop phytotoxicity HORVW; format: in vivo; conditions: HORVW
[25] = test system: Lamium purpureum (purple deadnettle, LAMPU); assay: Greenhouse postemergence trial LAMPU
[26] = test system: Chenopodium album L. (common lambsquarters, CHEAL); assay: Greenhouse postemergence trial CHEAL; format: in vivo; conditions: c1-2 Compound A 7.5/10; c3 Quinclorac 140; c4-5 A 7.5/10 + Quinclorac 140 g/ha;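 note: greenhouse plants sprayed at second to third true leaf stage, injury rated by eye after 20-22 d versus solvent-blank sprayed controls, 0 = no injury, 100 = complete kill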
[27] = test system: Amaranthus retroflexus (pigweed, AMARE); assay: Greenhouse postemergence trial AMARE; format: in vivo; conditions: c1-2 Compound A 7.5/10; c3 Quinclorac 140; c4-5 A 7.5/10 + Quinclorac 140 g/ha;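 note: Greenhouse-grown plants sprayed at second to third true leaf stage, injury rated by eye after 20-22 d versus solvent-blank sprayed controls, 0 = no injury, 100 = complete kill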
Procedure: as §5, §6, §7, §4

[28] = c1-2 Compound A 7.5/10, c3 Quinclorac 140, c4-5 A 7.5/10 + Quinclorac 140 g/ha
[29] = Papaver rhoeas, post-emergence, Quinclorac 560 g/ha, read-out: % visual injury Obs

SMILES: O=C(O)COc1ccc(Cl)cc1Cl [2,4-D Choline, 2,4-D choline, reference compound]
- % visual injury, Obs (crop phytotoxicity) ([1]; Triticum aestivum (spring wheat, TRZAS), in vivo): 0%
- % visual injury, Obs (crop phytotoxicity) ([2]; Hordeum vulgare (spring barley, HORVS), in vivo): 0%
- % visual injury, Obs ([3]; in vivo): 80%

SMILES: CNC.O=C(O)COc1ccc(Cl)cc1Cl [2,4-D DMA]
- % visual injury (Obs) ([4]; alone 280 g/ha): 55%
- % visual injury (Obs) ([5]; alone 280 g/ha): 10%
- % visual injury (Obs) ([1]; alone 280 g/ha): 5%
- % visual injury (Obs) ([2]; alone 280 g/ha): 0%
- % visual injury (Obs) ([3]; alone 280 g/ha): 83%
- % visual injury (Obs) ([6]; VIOTR, alone 280 g/ha): 65%

SMILES: Nc1nc(C2CC2)nc(C(=O)O)c1Cl [Aminocyclopyrachlor]
- % visual injury Obs ([7]; alone, 50 g/ha): 50%
- % visual injury Obs ([4]; alone, 50 g/ha): 70%
- % visual injury Obs ([8]; alone, 50 g/ha): 85%
- % visual injury Obs ([9]; alone, 50 g/ha): 50%
- % visual injury Obs ([10]; alone, 50 g/ha): 75%
- % visual injury (Obs) ([5]; alone 25 g/ha): 78%
- % visual injury Obs ([5]; alone, 50 g/ha): 100%
- % visual injury Obs ([11]; alone, 50 g/ha): 60%
- % visual injury (Obs) ([1]; alone 25 g/ha): 43%
- % visual injury Obs ([1]; alone, 50 g/ha): 0%
- % visual injury (Obs) ([2]; alone 25 g/ha): 20%
- % visual injury Obs ([2]; alone, 50 g/ha): 0%
- % visual injury Obs ([12]; alone, 50 g/ha): 100%
- % visual injury Obs ([13]; alone, 50 g/ha): 25%
- % visual injury Obs ([14]; alone, 50 g/ha): 60%
- % visual injury Obs ([15]; alone, 50 g/ha): 75%
- % visual injury Obs ([16]; VERPE, alone, 50 g/ha): 65%
- % visual injury Obs ([17]; alone, 50 g/ha): 60%
- % visual injury Obs ([18]; alone, 50 g/ha): 70%
- % visual injury Obs ([19]; alone, 50 g/ha): 30%
- % visual injury Obs ([20]; alone, 50 g/ha): 100%
- % visual injury Obs ([21]; alone, 50 g/ha): 50%
- % visual injury Obs ([22]; alone, 50 g/ha): 85%
- % visual injury Obs ([23]; alone, 50 g/ha): 0%
- % visual injury Obs ([24]; alone, 50 g/ha): 0%
- % visual injury (Obs) ([3]; alone 25 g/ha): 30%
- % visual injury Obs ([25]; LAMPU, alone, 50 g/ha): 65%
- % visual injury (Obs) ([6]; VIOTR, alone 25 g/ha): 45%
- % visual injury Obs ([6]; VIOTR, alone, 50 g/ha): 30%

SMILES: O=C(O)c1c(Cl)ccc2cc(Cl)cnc12 [Quinclorac, quinclorac, reference compound]
- plant injury ([7]; Brassica napus, post-emergence, Quinclorac 560 g/ha, read-out: % visual injury Obs): 10%
- pest or weed control ([4]; Fallopia convolvulus, post-emergence, Quinclorac 560 g/ha, read-out: % visual injury Obs): 10%
- pest or weed control ([8]; Cirsium arvense, post-emergence, Quinclorac 560 g/ha, read-out: % visual injury Obs): 30%
- pest or weed control ([9]; Mutarda arvensis, post-emergence, Quinclorac 560 g/ha, read-out: % visual injury Obs): 10%
- pest or weed control ([10]; Salsola kali, post-emergence, Quinclorac 560 g/ha, read-out: % visual injury Obs): 10%
- pest or weed control ([5]; Bassia scoparia, post-emergence, Quinclorac 560 g/ha, read-out: % visual injury Obs): 10%
- % visual injury [26]: 0%
- % visual injury [27]: 0%
- pest or weed control ([11]; Matricaria chamomilla, post-emergence, Quinclorac 560 g/ha, read-out: % visual injury Obs): 10%
- % visual injury Obs ([1]; Quinclorac 560 g/ha): 0%
- % visual injury (crop phytotoxicity) [1, 28]: 0%
- % visual injury Obs ([2]; Quinclorac 560 g/ha): 0%
- % visual injury (crop phytotoxicity) [2, 28]: 5%
- pest or weed control ([12]; Centaurea cyanus, post-emergence, Quinclorac 560 g/ha, read-out: % visual injury Obs): 60%
- pest or weed control ([13]; Viola arvensis, post-emergence, Quinclorac 560 g/ha, read-out: % visual injury Obs): 30%
- pest or weed control ([14]; Veronica hederifolia, post-emergence, Quinclorac 560 g/ha, read-out: % visual injury Obs): 30%
- pest or weed control [15, 29]: 10%
- pest or weed control ([16]; Veronica persica, post-emergence, VERVE, Quinclorac 560 g/ha, read-out: % visual injury Obs): 50%
- pest or weed control [17, 29]: 50%
- pest or weed control ([18]; Capsella bursa-pastoris, post-emergence, Quinclorac 560 g/ha, read-out: % visual injury Obs): 0%
- pest or weed control ([19]; Stellaria media, post-emergence, Quinclorac 560 g/ha, read-out: % visual injury Obs): 5%
- pest or weed control ([20]; Anthemis arvensis, post-emergence, Quinclorac 560 g/ha, read-out: % visual injury Obs): 0%
- pest or weed control ([21]; Matricaria discoidea, post-emergence, Quinclorac 560 g/ha, read-out: % visual injury Obs): 0%
- pest or weed control ([22]; Tripleurospermum inodorum, post-emergence, Quinclorac 560 g/ha, read-out: % visual injury Obs): 0%
- % visual injury Obs ([23]; Quinclorac 560 g/ha): 0%
- % visual injury Obs ([24]; Quinclorac 560 g/ha): 0%
- pest or weed control at 560 g/ha ([25]; Lamium purpureum, post-emergence, read-out: % visual injury Obs): 10%
- pest or weed control at 560 g/ha ([6]; Viola tricolor, post-emergence, read-out: % visual injury Obs): 10%
